Assay: xn = mol fraction of the nth substance listed
Conditions: 102 kPa, Liquid; for viscosity: Concentric cylinders viscometry; for speed of sound: Frequency=3 MHz, Single path-length method; for mass density: Vibrating tube method

CCCCCCCCC1CCCCC1 [octylcyclohexane] + CCCCCCCCCCCCCCCC
Conditions	mass density [kg/m3]	speed of sound [m/s]	viscosity [mPa·s]
293.15 K, x1 = 0.2001	780.29	1361.6	3.46
293.15 K, x1 = 0.3999	787.74	1366.8	3.46
293.15 K, x1 = 0.5002	791.67	1369.7	3.46
293.15 K, x1 = 0.6009	795.83	1372.6	3.44
293.15 K, x1 = 0.8006	804.62	1378.6	3.46
293.15 K, x1 = 1	814.14	1387	3.52
303.15 K, x1 = 0.2001	773.36	1324.4	2.75
303.15 K, x1 = 0.3999	780.82	1329.6	2.74
303.15 K, x1 = 0.5002	784.77	1332.1	2.75
303.15 K, x1 = 0.6009	788.93	1335	2.74
303.15 K, x1 = 0.8006	797.71	1341.3	2.76
303.15 K, x1 = 1	807.22	1349.1	2.79
313.15 K, x1 = 0.2001	766.44	1287.9	2.24
313.15 K, x1 = 0.3999	773.91	1293	2.23
313.15 K, x1 = 0.5002	777.87	1295.4	2.24
313.15 K, x1 = 0.6009	782.03	1298.3	2.23
313.15 K, x1 = 0.8006	790.79	1304.6	2.24
313.15 K, x1 = 1	800.29	1312.1	2.27
323.15 K, x1 = 0.2001	759.53	1252	1.85
323.15 K, x1 = 0.3999	767	1257.2	1.84
323.15 K, x1 = 0.5002	770.97	1259.5	1.85
323.15 K, x1 = 0.6009	775.12	1262.4	1.85
323.15 K, x1 = 0.8006	783.86	1268.6	1.85
323.15 K, x1 = 1	793.36	1275.9	1.88
333.15 K, x1 = 0.2001	752.62	1217.1	1.56
333.15 K, x1 = 0.3999	760.08	1222.1	1.55
333.15 K, x1 = 0.5002	764.05	1224.6	1.56
333.15 K, x1 = 0.6009	768.2	1227.3	1.56
333.15 K, x1 = 0.8006	776.93	1233.7	1.56
333.15 K, x1 = 1	786.42	1240.5	1.58
343.15 K, x1 = 0.2001	745.7	–	1.34
343.15 K, x1 = 0.3999	753.2	–	1.33
343.15 K, x1 = 0.5002	757.2	–	1.35
343.15 K, x1 = 0.6009	761.3	–	1.33
343.15 K, x1 = 0.8006	770	–	1.34
343.15 K, x1 = 1	779.5	–	1.36
353.15 K, x1 = 0.2001	738.8	–	1.15
353.15 K, x1 = 0.3999	746.3	–	1.15
353.15 K, x1 = 0.5002	750.2	–	1.15
353.15 K, x1 = 0.6009	754.3	–	1.15
353.15 K, x1 = 0.8006	763.1	–	1.16
353.15 K, x1 = 1	772.5	–	1.16
363.15 K, x1 = 0.2001	731.8	–	1.02
363.15 K, x1 = 0.3999	739.3	–	1
363.15 K, x1 = 0.5002	743.3	–	1.03
363.15 K, x1 = 0.6009	747.4	–	1.01
363.15 K, x1 = 0.8006	756.1	–	1.01
363.15 K, x1 = 1	765.5	–	1.04
373.15 K, x1 = 0.2001	724.8	–	0.887
373.15 K, x1 = 0.3999	732.3	–	0.889
373.15 K, x1 = 0.5002	736.3	–	0.89
373.15 K, x1 = 0.6009	740.4	–	0.895
373.15 K, x1 = 0.8006	749.1	–	0.897
373.15 K, x1 = 1	758.5	–	0.899

CCCCCCCCCCCCC1CCCCC1 [dodecylcyclohexane] + CCCCCCCCCCCCCCCC
Conditions	mass density [kg/m3]	speed of sound [m/s]	viscosity [mPa·s]
293.15 K, x1 = 0.2002	783.66	1370.4	4.02
293.15 K, x1 = 0.4001	793.67	1384	4.72
293.15 K, x1 = 0.5001	798.59	1390.6	5.11
293.15 K, x1 = 0.6003	803.47	1396.7	5.49
293.15 K, x1 = 0.8001	812.98	1410.4	6.49
293.15 K, x1 = 1	822.31	1423.3	7.76
303.15 K, x1 = 0.2002	776.77	1333.2	3.17
303.15 K, x1 = 0.4001	786.84	1347	3.66
303.15 K, x1 = 0.5001	791.79	1353.7	3.95
303.15 K, x1 = 0.6003	796.69	1359.9	4.23
303.15 K, x1 = 0.8001	806.26	1373.4	4.93
303.15 K, x1 = 1	815.65	1386.3	5.81
313.15 K, x1 = 0.2002	769.91	1296.9	2.56
313.15 K, x1 = 0.4001	780.03	1310.8	2.92
313.15 K, x1 = 0.5001	785.01	1317.6	3.13
313.15 K, x1 = 0.6003	789.93	1323.8	3.34
313.15 K, x1 = 0.8001	799.57	1337.3	3.85
313.15 K, x1 = 1	809.01	1350.4	4.48
323.15 K, x1 = 0.2002	763.05	1261.2	2.1
323.15 K, x1 = 0.4001	773.23	1275.3	2.38
323.15 K, x1 = 0.5001	778.23	1282.1	2.54
323.15 K, x1 = 0.6003	783.19	1288.5	2.7
323.15 K, x1 = 0.8001	792.89	1302	3.09
323.15 K, x1 = 1	802.37	1315.2	3.55
333.15 K, x1 = 0.2002	756.19	1226.5	1.76
333.15 K, x1 = 0.4001	766.43	1240.6	1.97
333.15 K, x1 = 0.5001	771.46	1247.5	2.1
333.15 K, x1 = 0.6003	776.44	1254.3	2.23
333.15 K, x1 = 0.8001	786.2	1267.8	2.53
333.15 K, x1 = 1	795.74	1281.1	2.88
343.15 K, x1 = 0.2002	749.3	–	1.49
343.15 K, x1 = 0.4001	759.7	–	1.67
343.15 K, x1 = 0.5001	764.7	–	1.77
343.15 K, x1 = 0.6003	769.7	–	1.88
343.15 K, x1 = 0.8001	779.6	–	2.11
343.15 K, x1 = 1	789.1	–	2.39
353.15 K, x1 = 0.2002	742.4	–	1.28
353.15 K, x1 = 0.4001	752.9	–	1.43
353.15 K, x1 = 0.5001	757.9	–	1.51
353.15 K, x1 = 0.6003	763	–	1.6
353.15 K, x1 = 0.8001	772.9	–	1.79
353.15 K, x1 = 1	782.5	–	2.01
363.15 K, x1 = 0.2002	735.6	–	1.14
363.15 K, x1 = 0.4001	746.1	–	1.24
363.15 K, x1 = 0.5001	751.1	–	1.31
363.15 K, x1 = 0.6003	756.2	–	1.38
363.15 K, x1 = 0.8001	766.2	–	1.54
363.15 K, x1 = 1	775.9	–	1.72
373.15 K, x1 = 0.2002	728.7	–	0.978
373.15 K, x1 = 0.4001	739.3	–	1.08
373.15 K, x1 = 0.5001	744.3	–	1.14
373.15 K, x1 = 0.6003	749.4	–	1.21
373.15 K, x1 = 0.8001	759.5	–	1.34
373.15 K, x1 = 1	769.2	–	1.48
